Reference: US6992079B2, “Substituted 11-phenyl-dibenzazepine compounds useful for the treatment or prevention of diseases characterized by abnormal cell proliferation” (President Fellows of Harvard College, priority 1997, dated 2006)

What was measured:
COLO 205 = experiment: In-Vitro Testing SRB panel: Colon Cancer; type: cell-based; conditions: COLO 205, 48 h
OVCAR-4 = experiment: In-Vitro Testing SRB panel: Ovarian Cancer; type: cell-based; conditions: OVCAR-4, 48 h
SR = experiment: In-Vitro Testing SRB panel: Leukemia; type: cell-based; conditions: 48 h
[1] = tested on: A2058 metastatic melanoma; experiment: Mouse xenograft tumor growth; type: in vivo, CD-1 nude mice
Description: NCI-A2058 human melanoma cell line was grown as monolayer culture in Minimum essential medium (D-MEM) supplemented with 10% fetal bovine serum (FBS), 0.1 mM non-essential amino acid, 1.0 mM sodium pyruvate, 100U/ml penicillin, 100 μg/ml streptomycin and 0.25 μg/ml amphotericin B and L-alanyl-1-glutamine (2 mM) at 37° C. in an atmosphere of 5% CO2 in air. The tumor cells were routinely subcultured twice weekly by trypsin-EDTA treatment. The cells were harvested from subconfluent logarithmically growing culture by treatment with typsin-EDTA and counted for tumor inoculation.
An acclimation period of at least 7 days were allowed between animal receipt and commence of tumor inoculation. When the female CD-1 nude mice were more than 6-7 weeks of age (20-25 g), each mouse was subcutaneously injected with 5.0×10^6 NCI-A2058 human melanoma cells in 0.1 ml of PBS solution at the right flank of the mice to induce tumor growth.

[2] = tested on: SU.86.86 pancreatic adenocarcinoma; experiment: Mouse xenograft tumor growth; type: in vivo, nude mice; conditions: SU.86.86 pancreatic adenocarcinoma mouse xenograft
SK-MEL-2 = experiment: In-Vitro Testing SRB panel: Melanoma; type: cell-based; conditions: SK-MEL-2, 48 h
HeLa = experiment: SRB antiproliferative assay; type: cell-based; conditions: Homo sapiens, HeLa (Cervical), 5% FCS/5 day incubation
Text: (§1) The cells were passaged using Trypsin (Gibco).

U118MG = experiment: SRB antiproliferative assay; type: cell-based; conditions: Homo sapiens, U-118-MG
Text: as §1

HT29 = experiment: SRB antiproliferative assay; type: cell-based; conditions: Homo sapiens
Text: as §1

HEPG2 = experiment: SRB antiproliferative assay; type: cell-based; conditions: Homo sapiens
Text: as §1

A549 = experiment: SRB antiproliferative assay; type: cell-based; conditions: Homo sapiens
Text: as §1

MCF7 = experiment: SRB antiproliferative assay; type: cell-based; conditions: Homo sapiens
Text: as §1

HCT-116 = experiment: In-Vitro Testing SRB panel: Colon Cancer; type: cell-based; conditions: HCT-116, 48 h
IGROV1 = experiment: In-Vitro Testing SRB panel: Ovarian Cancer; type: cell-based
ACHN = experiment: In-Vitro Testing SRB panel: Renal Cancer; type: cell-based; conditions: 48 h
[3] = tested on: H460 large cell lung carcinoma; experiment: Mouse xenograft tumor growth; type: in vivo, CD-1 nude mice
OVCAR-3 = experiment: In-Vitro Testing SRB panel: Ovarian Cancer
SF-539 = experiment: In-Vitro Testing SRB panel: CNS Cancer; type: cell-based; conditions: SF-539, 48 h
UACC-257 = experiment: In-Vitro Testing SRB panel: Melanoma; type: cell-based; conditions: UACC-257, 48 h
[4] = tested on: NIH 3T3 mouse fibroblast cells; experiment: Mitogenic assay (mitogen-induced cell proliferation); type: cell-based
[5] = Homo sapiens, read-out: LC50 (the source's name)

O=C(c1ccc([N+](=O)[O-])cc1)N1Cc2ccccc2C(c2ccccc2Cl)c2ccccc21 (stereo not drawn) [Compound 28, N-(4′-Nitrobenzoyl)-11-(2′-chlorophenyl)-5,6-dihydro-11H-dibenz[b,e]azepine]
TGI (COLO 205): 1.41E−05 Molar | Percent Growth (COLO 205; log10 conc −4.0 Molar): −60% | Percent Growth (COLO 205; log10 conc −5.0 Molar): 10% | Percent Growth (COLO 205; log10 conc −6.0 Molar): 40% | Percent Growth (COLO 205; log10 conc −7.0 Molar): 77% | Percent Growth (COLO 205; log10 conc −8.0 Molar): 79% | GI50 (COLO 205; Homo sapiens): 845 nM | CC50 (COLO 205; [5]): > 72500 nM | GI50 (OVCAR-4; Homo sapiens): 974 nM | CC50 (OVCAR-4; [5]): > 100000 nM | TGI (OVCAR-4): >1.00E−04 Molar | Percent Growth (OVCAR-4; log10 conc −4.0 Molar): 10% | Percent Growth (OVCAR-4; log10 conc −5.0 Molar): 16% | Percent Growth (OVCAR-4; log10 conc −6.0 Molar): 50% | Percent Growth (OVCAR-4; log10 conc −7.0 Molar): 80% | Percent Growth (OVCAR-4; log10 conc −8.0 Molar): 98% | TGI (SR): >1.00E−04 Molar | GI50 (SR; Homo sapiens): 643 nM | CC50 (SR; [5]): > 100000 nM | Percent Growth (SR; log10 conc −4.0 Molar): 21% | Percent Growth (SR; log10 conc −5.0 Molar): 30% | Percent Growth (SR; log10 conc −6.0 Molar): 42% | Percent Growth (SR; log10 conc −7.0 Molar): 85% | Percent Growth (SR; log10 conc −8.0 Molar): 76% | tumor growth [1]: significantly inhibited tumor growth | tumor growth [2]: significantly inhibited tumor growth | GI50 (SK-MEL-2; Homo sapiens): 1760 nM | CC50 (SK-MEL-2; [5]): > 100000 nM | TGI (SK-MEL-2): 1.10E−05 Molar | Percent Growth (SK-MEL-2; log10 conc −4.0 Molar): −31% | Percent Growth (SK-MEL-2; log10 conc −5.0 Molar): 1% | Percent Growth (SK-MEL-2; log10 conc −6.0 Molar): 66% | Percent Growth (SK-MEL-2; log10 conc −7.0 Molar): 95% | Percent Growth (SK-MEL-2; log10 conc −8.0 Molar): 107% | IC50 (HeLa): 300 nM | IC50 (U118MG; U118MG (CNS), 5% FCS/5 day incubation): 500 nM | IC50 (U118MG; U118MG, 5% FCS/3 days): 1300 nM | IC50 (HT29; HT-29, HT29 (Colon), 5% FCS/5 day incubation): 300 nM | IC50 (HT29; HT-29, HT29, 5% FCS/3 days): < 1250 nM | IC50 (HEPG2; HepG2, HEPG2 (Hepatocel), 5% FCS/5 day incubation): 300 nM | IC50 (HEPG2; HepG2, HEPG2, 5% FCS/3 days): < 1250 nM | IC50 (A549; A549, A549 (Lung), 5% FCS/5 day incubation): 800 nM | IC50 (A549; A549, A549, 5% FCS/3 days): 1800 nM | IC50 (MCF7; MCF7, MCF7 (Breast), 5% FCS/5 day incubation): 600 nM | IC50 (MCF7; MCF7, MCF7, 5% FCS/3 days): 2100 nM | TGI (HCT-116): >1.00E−04 Molar | Percent Growth (HCT-116; log10 conc −4.0 Molar): 11% | Percent Growth (HCT-116; log10 conc −5.0 Molar): 19% | Percent Growth (HCT-116; log10 conc −6.0 Molar): 27% | Percent Growth (HCT-116; log10 conc −7.0 Molar): 93% | Percent Growth (HCT-116; log10 conc −8.0 Molar): 103% | GI50 (HCT-116; Homo sapiens): 447 nM | CC50 (HCT-116; [5]): > 100000 nM | GI50 (IGROV1; Homo sapiens, IGROV-1, 48 h): 1880 nM | CC50 (IGROV1; Homo sapiens, IGROV-1, IGROV1, 48 h, read-out: LC50 (the source's name)): > 100000 nM | TGI (IGROV1; IGROV1, 48 h): >1.00E−04 Molar | Percent Growth (IGROV1; IGROV1, log10 conc −4.0 Molar, 48 h): 25% | Percent Growth (IGROV1; IGROV1, log10 conc −5.0 Molar, 48 h): 34% | Percent Growth (IGROV1; IGROV1, log10 conc −6.0 Molar, 48 h): 56% | Percent Growth (IGROV1; IGROV1, log10 conc −7.0 Molar, 48 h): 97% | Percent Growth (IGROV1; IGROV1, log10 conc −8.0 Molar, 48 h): 102% | TGI (ACHN): >1.00E−04 Molar | GI50 (ACHN; Homo sapiens): 1370 nM | CC50 (ACHN; [5]): > 100000 nM | Percent Growth (ACHN; log10 conc −4.0 Molar): 19% | Percent Growth (ACHN; log10 conc −5.0 Molar): 30% | Percent Growth (ACHN; log10 conc −6.0 Molar): 53% | Percent Growth (ACHN; log10 conc −7.0 Molar): 92% | Percent Growth (ACHN; log10 conc −8.0 Molar): 102% | tumor growth [3]: significantly inhibited tumor growth | GI50 (OVCAR-3; Homo sapiens, OVCAR-3, 48 h): 5250 nM | CC50 (OVCAR-3; Homo sapiens, OVCAR-3, 48 h, read-out: LC50): > 100000 nM | TGI (OVCAR-3; OVCAR-3, 48 h): >1.00E−04 Molar | Percent Growth (OVCAR-3; OVCAR-3, log10 conc −4.0 Molar, 48 h): 31% | Percent Growth (OVCAR-3; OVCAR-3, log10 conc −5.0 Molar, 48 h): 44% | Percent Growth (OVCAR-3; OVCAR-3, log10 conc −6.0 Molar, 48 h): 64% | Percent Growth (OVCAR-3; OVCAR-3, log10 conc −7.0 Molar, 48 h): 95% | Percent Growth (OVCAR-3; OVCAR-3, log10 conc −8.0 Molar, 48 h): 89% | GI50 (SF-539; Homo sapiens): 25600 nM | CC50 (SF-539; [5]): > 100000 nM | TGI (SF-539): >1.00E−04 Molar | Percent Growth (SF-539; log10 conc −4.0 Molar): 35% | Percent Growth (SF-539; log10 conc −5.0 Molar): 61% | Percent Growth (SF-539; log10 conc −6.0 Molar): 86% | Percent Growth (SF-539; log10 conc −7.0 Molar): 107% | Percent Growth (SF-539; log10 conc −8.0 Molar): 82% | GI50 (UACC-257; Homo sapiens): 441 nM | CC50 (UACC-257; [5]): > 100000 nM | TGI (UACC-257): >1.00E−04 Molar | Percent Growth (UACC-257; log10 conc −4.0 Molar): 6% | Percent Growth (UACC-257; log10 conc −5.0 Molar): 9% | Percent Growth (UACC-257; log10 conc −6.0 Molar): 35% | Percent Growth (UACC-257; log10 conc −7.0 Molar): 78% | Percent Growth (UACC-257; log10 conc −8.0 Molar): 81% | IC50 ([4]; NIH3T3): 40 to 500 nM | inhibition at 10 µM ([4]; NIH3T3, 10 μM compound): 99%
